In patent publication US10578622B2, “Sensors for detecting citrate, and method of detecting citrate using the same” (KOREA INSTITUTE OF SCIENCE AND TECHNOLOGY, priority 2017, dated 2020):

Legend:
[1] = Photophysical properties of the citrate detection sensor in the presence and absence of citrate; assay type: physicochemical
Description: Meanwhile, referring to FIG. 5, it can be seen that the citrate detection sensor not subjected to reaction with citrate expresses (blue) fluorescence while emitting weak fluorescence at 346 nm and 458 nm. On the contrary, when citrate is added to the citrate detection sensor including 2 μM of ARBD in the presence of 10 mM of 4-(2-hydroxyethyl)-1-piperazineethane sulfonic acid (HEPES) buffer (2 vol % DMSO) at pH 7.4, it can be seen that strong fluorescence appears at 548 nm together with a dramatic color change from blue to green. […] However, such a change in fluorescence is differentiated preferentially by visualization.

[2] = Selectivity and interference of the citrate detection sensor
Description: The citrate detection sensor was used to test the selectivity and interference capability to the related similar species for the detection of the other biological carboxylate and citrate. For this test, 1 μM of citrate and 0.5 mM of the other ions were added ((1) sensor, (2) citrate, (3) fumarate, (4) benzoate, (5) glutamate, (6) succinate, (7) malonate, (8) oxalate, (9) acetate, (10) phosphate, (11) sulfite, and (12) sulfate).
Referring to FIG. 8C, it can be seen that even when the other ionic substances have a concentration at least 500 times higher than the concentration of citrate, the citrate detection sensor is reactive selectively with citrate without any interference under high sensitivity. In addition, since it is well known that boronate is a diol sensor, selectivity was also determined for the other materials having a diol moiety, such as hydrogen peroxide (H2O2), glucose, fructose, sucrose, dopamine species, or the like. […] Although the two analytes undergo a reaction in response to the fluorescence intensity, it can be seen that citrate emits green fluorescence and H2O2 emits blue fluorescence. Thus, it can be seen that since only citrate emits green fluorescence in a biological sample at a concentration of ‘μM’ scale, it is possible to detect citrate with ease by the naked eyes through the citrate detection sensor.

[3] = Fluorescence intensity as a function of time and pH in the presence of citrate; assay type: physicochemical
Description: Meanwhile, FIG. 6A to FIG. 6C show a graph illustrating a change in fluorescence intensity of the citrate detection sensor as a function of time in the presence of different concentrations of citrate (0-0.9 μM), a graph illustrating fluorescence emission intensity of ARBD and citrate at different pH values and a fluorescence image thereof, respectively.
When optimizing the determination condition in FIG. 6A, it can be seen that the maximum value of fluorescence intensity is accomplished within about 15 minutes. […] Thus, it can be seen that when citrate is introduced to the citrate detection sensor, fluorescence enhancement may be varied with pH.

PC3 cells = assay: Fluorescence expression of the citrate detection sensor in living PC3 cells; assay type: cell-based; settings: ARBD 2 μM, cultured 30 minutes
Description: The citrate detection sensor was evaluated in terms of its probe capability in living cells (PC3). […] Particularly, after the citrate sensor including ARBD (2 μM) was cultured for 30 minutes, the image in PC3 cells was observed.
FIG. 9A to FIG. 9C show the fluorescence expressed generally when ARBD is introduced to prostate cancer cells. The image (FIG. 9C) of the expressed fluorescence (FIG. 9A) overlapped with the photo image (FIG. 9B) of the cell lines is shown between them. Then, green fluorescence expressed when adding citrate to the detection sensor inserted to the cell lines was observed. The image (FIG. 9D) after adding citrate, the photo image (FIG. 9E) thereof and their overlapped image (FIG. 9F) are shown in FIG. 9D to FIG. 9F.

[4] = Job plot and reaction kinetics of the sensor including ARBD with citrate; settings: reaction with citrate; plot of ln(Fmax−F)/Fmax vs time
Text: To understand the bonding behavior in the reaction between the citrate detection sensor including ARBD and citrate, the reaction was investigated by using the Job plot.
It can be seen from FIG. 3 that the maximum absorption intensity appears at a molar fraction of 0.5. Thus, it can be seen that a 1:1 complex is formed during the reaction of the citrate detection sensor with citrate. In this case, the reaction kinetics may be expressed by −kt=ln(Fmax−F)/Fmax (wherein k=rate constant, and ‘F’ and ‘Fmax’ represent the fluorescence intensity at time ‘t’). In addition, the maximum intensity reaction value accomplished after the completion of the reaction was calculated by using the plot of ‘ln(Fmax−F)/Fmax vs time’ as shown in FIG. 4.

[5] = High-sensitivity detection of citrate (UV-Vis absorption and fluorescence titration); settings: pH 7.4, 10 mM HEPES (2 vol % DMSO)
Description: The initial citrate tracking ability of the citrate detection sensor including ARBD was evaluated by using UV-Vis absorption spectrometry using ARBD at pH 7.4 in the presence of 10 mM of HEPES buffer solution (2 vol % DMSO). Referring to FIG. 7A to FIG. 7C, it is possible to determine a change in fluorescence spectrum of ARBD when adding citrate at a concentration increasing linearly. […] The absorption intensity at 346 nm is decreased whenever citrate is added and a new peak position appears at 400 nm. In addition, as shown in FIG. 7A to FIG. 7C, it can be seen that an increase in concentration of citrate affects both the fluorescence intensity and the fluorescence wavelength. Further, it can be seen that when the concentration of citrate is increased from 0 to 800 nM for the citrate detection sensor including 2 μM of ARBD at pH 7.4 in the presence of 10 mM of HEPES buffer solution (2 vol % DMSO), the maximum fluorescence intensity is increased linearly to 548 nm. It can be also seen that when the concentration of citrate is increased to 950 nM, the peak at 548 nm is increased linearly while causing no change in wavelength.

With CC1(C)OB(c2ccc(-c3nc(-c4ccc(-c5nc(-c6ccccc6)c(-c6ccccc6)[nH]5)cc4)no3)cc2)OC1(C)C [ARBD, 5-(4-(4,4,5,5-tetramethyl-1,3,2-dioxaborolan-2-yl)phenyl)-3-(4-(4,5-diphenyl-1H-imidazol-2-yl)phenyl)-1,2,4-oxadiazole] the Fluorescence quantum yield [1] was 0.18, the “Maximum absorption wavelength (λabs)” value [1] was 352 and the “Maximum emission wavelength (λemiss)” value [1] was 458. The fluorescence emission wavelength ([1]; citrate added, 2 μM ARBD, 10 mM HEPES buffer (2 vol % DMSO), pH 7.4, strong fluorescence, color change blue to green) was 548 nm, the fluorescence emission wavelength ([1]; sensor not subjected to reaction with citrate, weak (blue) fluorescence) was 458 nm and the “selectivity: fluorescence enhancement by citrate versus other ions” value ([2]; 1 μM citrate, 0.5 mM fumarate, benzoate, glutamate, succinate, malonate, oxalate, acetate, phosphate, sulfite, sulfate) was “only citrate can induce fluorescence enhancement”. For the same compound, the “selectivity versus materials having a diol moiety” value ([2]; H2O2, glucose, fructose, sucrose, dopamine species, citrate emits green, H2O2 blue fluorescence) was “reacts only with citrate and hydrogen peroxide”, the “interference of other ionic compounds with detection of citrate” value ([2]; other species at least 500 times higher concentration than citrate) was “no effect upon the detection of citrate” and the “pH of highest and stable fluorescence intensity” value ([3]; ARBD and citrate at different pH values) was 7-8 pH. For the same compound, the “time to maximum value of fluorescence intensity” value ([3]; citrate 0-0.9 μM) was ≤ 15 min, the “stability of fluorescence intensity after reaction with citrate” value ([3]; citrate 0-0.9 μM, whole concentration range) was “maintained constantly to 60 minutes” and the “fluorescence in cells after adding citrate” value (PC3 cells) was “reacts with citrate to express a green color”. The “k (reaction rate constant)” value [4] was 0.148 min⁻¹, the “detection limit for citrate” value ([5]; S/N=3, 2 μM ARBD) was 10 nM and the “new absorption peak position on addition of citrate” value ([5]; citrate 0 to 12 μM) was 400 nm. It also gave an absorption peak ([5]; initial stage, no citrate) of 346 nm.
